Source: US4661510A, “α-allenic-α-amino acids as enzyme inhibitors” (priority 1985, dated 1987)

Key:
[1] = molecular target: T1, rat liver ornithine decarboxylase (Rattus norvegicus, UniProt P09057); conditions: Metcalf et al 1979; cited from earlier work
T1 construct: host or cells: rat liver
T1 sequence (P09057 1-461): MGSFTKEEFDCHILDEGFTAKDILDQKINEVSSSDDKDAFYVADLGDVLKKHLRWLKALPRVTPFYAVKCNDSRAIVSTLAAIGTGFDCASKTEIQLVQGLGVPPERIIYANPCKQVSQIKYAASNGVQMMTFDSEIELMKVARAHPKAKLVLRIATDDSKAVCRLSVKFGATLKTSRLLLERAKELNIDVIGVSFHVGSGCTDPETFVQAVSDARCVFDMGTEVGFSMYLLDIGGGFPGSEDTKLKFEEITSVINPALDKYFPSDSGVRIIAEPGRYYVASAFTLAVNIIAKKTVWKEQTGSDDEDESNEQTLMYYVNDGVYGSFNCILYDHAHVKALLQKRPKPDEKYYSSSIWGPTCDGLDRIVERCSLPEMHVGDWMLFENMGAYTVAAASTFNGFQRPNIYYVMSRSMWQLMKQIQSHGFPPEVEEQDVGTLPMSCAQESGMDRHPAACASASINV

[2] = molecular target: T2, rat prostate ornithine decarboxylase (Rattus norvegicus, UniProt P09057); conditions: Metcalf et al 1979; cited from earlier work
T2 construct: host or cells: rat prostate
T2 sequence (P09057 1-461): T1 sequence (P09057 1-461)

[3] = molecular target: T3, bacterial tyrosine decarboxylase from Streptococcus faecallis (Enterococcus faecalis, UniProt Q838D6); assay: Time dependent inactivation of tyrosine decarboxylase; type: biochemical; conditions: Streptococcus faecallis enzyme
T3 construct: purchased from Sigma Chemical Co. as crude extracts; purchased Sigma Chemical Co; host or cells: Streptococcus faecalis, crude extract
T3 sequence (Q838D6 1-620): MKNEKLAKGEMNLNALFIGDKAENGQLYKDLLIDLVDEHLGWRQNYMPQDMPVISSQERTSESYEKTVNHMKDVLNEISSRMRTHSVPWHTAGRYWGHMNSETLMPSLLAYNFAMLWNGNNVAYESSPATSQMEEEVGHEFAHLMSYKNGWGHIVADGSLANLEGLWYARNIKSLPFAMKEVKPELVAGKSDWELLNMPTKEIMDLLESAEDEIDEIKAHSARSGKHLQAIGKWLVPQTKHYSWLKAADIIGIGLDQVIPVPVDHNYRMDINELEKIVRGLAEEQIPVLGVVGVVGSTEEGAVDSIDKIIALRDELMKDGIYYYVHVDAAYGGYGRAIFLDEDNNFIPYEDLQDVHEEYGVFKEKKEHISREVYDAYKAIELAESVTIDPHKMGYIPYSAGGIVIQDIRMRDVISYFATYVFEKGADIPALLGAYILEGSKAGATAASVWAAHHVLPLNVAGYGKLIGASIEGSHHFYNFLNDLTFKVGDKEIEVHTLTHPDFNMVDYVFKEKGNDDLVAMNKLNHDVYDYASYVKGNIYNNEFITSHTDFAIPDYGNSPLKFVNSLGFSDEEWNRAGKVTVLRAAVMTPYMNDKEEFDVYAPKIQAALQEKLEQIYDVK
Source text: (§1) Mammalian DOPA decarboxylase was isolated and purified from porcine kidney by the procedure of Borri-Voltatorni et al [Eur. J. Biochem., 93, 181 (1979)] with modifications as introduced by Rudd and Thanassi [Biochemistry, 20, 7469 (1981)]. Bacterial L-phenylalanine and L-tyrosine decarboxylases ex Streptococcus faecallis were purchased from Sigma Chemical Co. as crude extracts and studied without further purification.
(§2) The time dependent inactivation of bacterial aromatic amino acid decarboxylases with 200-1000 micromolar inhibitor, e.g. 2-amino-2-(4-hydroxybenzyl)-penta-3,4-dienoic acid or 2-amino-2-benzylpenta-3,4-dienoic acid, was monitored at pH 5.5 and 37° C. Residual activity of tyrosine decarboxylase ex Streptococcus faecallis was determined by measurement of p-tyramine production at pH 5.5 and 37° C. p-Tyramine was separated by HPLC and quantified by electrochemical oxidation at +0.7 volts.

[4] = molecular target: T4, mammalian DOPA decarboxylase from porcine kidney (Sus scrofa, UniProt P80041); assay: Time dependent inactivation of DOPA decarboxylase; type: biochemical; conditions: porcine kidney enzyme
T4 construct: isolated and purified from porcine kidney; from tissue; host or cells: porcine kidney
T4 sequence (P80041 1-486): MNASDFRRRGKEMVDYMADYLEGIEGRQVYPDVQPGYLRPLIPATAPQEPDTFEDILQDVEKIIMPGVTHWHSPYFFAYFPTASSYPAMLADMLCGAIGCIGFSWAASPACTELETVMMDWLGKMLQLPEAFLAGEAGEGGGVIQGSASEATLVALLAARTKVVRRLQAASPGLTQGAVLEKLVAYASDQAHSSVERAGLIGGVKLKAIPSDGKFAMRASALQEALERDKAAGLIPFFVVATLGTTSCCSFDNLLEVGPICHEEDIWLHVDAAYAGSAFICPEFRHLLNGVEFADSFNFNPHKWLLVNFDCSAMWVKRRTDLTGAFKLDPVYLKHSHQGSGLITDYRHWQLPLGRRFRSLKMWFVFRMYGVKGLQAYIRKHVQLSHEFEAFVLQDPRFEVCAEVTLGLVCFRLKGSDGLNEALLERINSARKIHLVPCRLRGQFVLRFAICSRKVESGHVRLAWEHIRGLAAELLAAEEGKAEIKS
Source text: as §1
Time dependent inactivation of mammalian DOPA decarboxylase was monitored by incubation of enzyme with 4 to 100 molar equivalent excess of 2-amino-2-(3,4-dihydroxybenzyl)penta-3,4-dienoic acid at pH 6.8 and 37° C. At appropriate time intervals, aliquots of the mixture were withdrawn, diluted 30-fold into excess L-DOPA (2 mM) and residual DOPA decarboxylase activity determined.
DOPA decarboxylase activity was routinely measured by liquid chromatography and electrochemical detection of catecholamine products. DOPA decarboxylase (1-5 micrograms, 1-20 units) was incubated with L-DOPA (2000 micromolar, 150 microliters) and PLP (10 micromolar) in 0.1M phosphate at pH 6.8 and 37° C. After 1-10 minutes, the reaction was quenched with citric acid (2M, 25 microliters), diluted two-fold with distilled water and 10 microliter aliquots were analyzed by HPLC on a reverse phase Brownlee RP-18 column. Isocratic elution with pH 4.35 buffer [0.1M NaOAc ([…]), 0.1M citric acid (32% v/v) and methanol (15% v/v)] at a flow rate of 2.5 ml/min. afforded baseline resolution of dopamine (RT=2.8 min.) from L-DOPA (RT=1.9 min.).
Quantification of dopamine was accomplished by preoxidation of the catechol to the ortho quinone at +0.25 volts in the first analytical electrochemical cell, followed by the selective reduction of ortho quinone in the second analytical cell set at -0.25 volts. This configuration for the ESA electrochemical detector allowed highly sensitive and selective detection of catecholamines (less than 10 picomoles/injection).

Male Sim:(S.D.)fBR rats = assay: In vivo potentiation of L-DOPA induced behaviors; set-up: species or system rat; conditions: for Mean Behavior Score at 60 min.: score scale 0-6, before 200 mg/kg L-DOPA i.p.
Experimental: Male Sim:(S.D.)fBR rats weighing 180-335 g were used for these experiments. Groups of 5 rats were individually housed and received water, or various doses of either 2-amino-2-(3-hydroxybenzyl)penta-3,4-dienoic acid or 2-amino-2-(3,4-dihydroxybenzyl)penta-3,4-dienoic acid 30 l minutes before 200 mg/kg of L-DOPA, i.p. Beginning 15 minutes later, behavioral observations were made at 15 minutes intervals for 2 hours. Behavoir was scored as follows:
3=Alert with intermittent sniffing

[5] = molecular target: T5, phenylalanine decarboxylase from Streptococcus faecallis (Enterococcus faecalis, UniProt Q838D6); assay: Time dependent inactivation of phenylalanine decarboxylase; type: biochemical; conditions: Streptococcus faecallis enzyme
T5 construct: L-phenylalanine substrate, phenylethylamine by GC
T5 sequence (Q838D6 1-620): T3 sequence (Q838D6 1-620)
Source text: as §1, §2
Residual activity of L-phenylalanine decarboxylase ex Streptococcus faecallis with L-phenylalanine (2 mM) as substrate was meaasured by gas chromatographic analysis of phenylethylamine production. Direct injection of enzymatic reaction mixture (1-5 microliters) onto a standard glass column packed with 10% Apiezon L on Chromosorb 80/100 deactivated with 2% KOH allowed separation of aromatic amine from the reaction mixture. FID detection quantified the rate of product formation.

[6] = tested on: mammalian glutamate decarboxylase; conditions: Jung et al 1978; cited from earlier work
[7] = molecular target: bacterial glutamate decarboxylase (Escherichia coli, UniProt P69910); conditions: Jung et al 1978; cited from earlier work
Sequence of bacterial glutamate decarboxylase (P69910 whole entry): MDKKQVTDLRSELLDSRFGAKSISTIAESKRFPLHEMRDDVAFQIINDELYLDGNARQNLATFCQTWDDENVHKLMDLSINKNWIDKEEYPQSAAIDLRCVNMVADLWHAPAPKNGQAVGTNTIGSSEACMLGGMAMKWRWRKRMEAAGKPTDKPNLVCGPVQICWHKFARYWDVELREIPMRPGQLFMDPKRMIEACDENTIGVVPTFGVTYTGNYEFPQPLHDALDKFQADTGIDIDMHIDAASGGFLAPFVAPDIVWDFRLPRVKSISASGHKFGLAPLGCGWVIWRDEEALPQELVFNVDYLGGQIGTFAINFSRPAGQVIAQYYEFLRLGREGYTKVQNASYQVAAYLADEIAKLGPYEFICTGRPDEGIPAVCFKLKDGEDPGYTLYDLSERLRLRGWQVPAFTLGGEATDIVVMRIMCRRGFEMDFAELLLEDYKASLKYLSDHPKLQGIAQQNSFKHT

[8] = tested on: rat brain glutamate decarboxylase; conditions: Crystal et al 1977; cited from earlier work
[9] = molecular target: T6, aromatic amino acid decarboxylase (Sus scrofa, UniProt P80041); conditions: Maycock et al; cited from earlier work
T6 sequence (P80041 1-486): T4 sequence (P80041 1-486)

ornithine decarboxylase = molecular target: T7, ornithine decarboxylase (Homo sapiens, UniProt P11926); conditions: Relyea and Rando 1975; cited from earlier work
T7 sequence (P11926 1-461): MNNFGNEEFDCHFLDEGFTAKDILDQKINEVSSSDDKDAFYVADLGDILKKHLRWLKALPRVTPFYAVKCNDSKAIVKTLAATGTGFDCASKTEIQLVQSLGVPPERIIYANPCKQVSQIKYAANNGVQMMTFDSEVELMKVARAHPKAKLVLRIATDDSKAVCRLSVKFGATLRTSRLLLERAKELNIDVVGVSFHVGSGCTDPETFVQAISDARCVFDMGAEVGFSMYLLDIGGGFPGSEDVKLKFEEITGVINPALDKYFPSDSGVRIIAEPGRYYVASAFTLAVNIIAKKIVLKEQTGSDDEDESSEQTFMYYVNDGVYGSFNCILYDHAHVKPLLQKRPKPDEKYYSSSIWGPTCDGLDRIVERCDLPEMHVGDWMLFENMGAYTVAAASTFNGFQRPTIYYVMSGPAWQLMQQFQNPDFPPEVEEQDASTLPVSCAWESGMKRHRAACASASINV

Compound	irreversible inactivation of tyrosine decarboxylase [3]	irreversible inactivation of DOPA decarboxylase [4]	irreversible inactivation of phenylalanine decarboxylase [5]	also measured
C#CC(N)CCCN (single isomer, unassigned; (-)) [(-)-5-hexyne-1,4-diamine]				inhibition of ornithine decarboxylase [1]: potent time-dependent inhibitor; inhibition of ornithine decarboxylase [2]: potent time-dependent inhibitor
C=C=CC(N)(Cc1ccc(O)c(O)c1)C(=O)O (centres unmarked) [2-amino-2-(3,4-dihydroxybenzyl)penta-3,4-dienoic acid]	irreversible inactivators	irreversible inactivators	irreversible inactivators	potentiation of the behaviors induced by L-DOPA (Male Sim:(S.D.)fBR rats; 30 mg/kg i.p. or s.c., 30 minutes before 200 mg/kg L-DOPA i.p.): active; Mean Behavior Score at 60 min. (Male Sim:(S.D.)fBR rats; 30 mg/kg i.p.): 4.0; Mean Behavior Score at 60 min. (Male Sim:(S.D.)fBR rats; 30 mg/kg s.c.): 4.0; potentiation of DOPA behaviors (Male Sim:(S.D.)fBR rats; 3 to 30 mg/kg i.p. or 30 to 150 mg/kg s.c.): potentiate DOPA behaviors
CC=C=CC(N)(Cc1cccc(O)c1)C(=O)O (centres unmarked) [2-amino-2-(3-hydroxybenzyl)hexa-3,4-dienoic acid]	irreversible inactivators	irreversible inactivators	irreversible inactivators	
C=C=CC(N)(Cc1ccc(O)cc1)C(=O)O (centres unmarked) [2-amino-2-(4-hydroxybenzyl)penta-3,4-dienoic acid]	irreversible inactivators	irreversible inactivators	irreversible inactivators	
CC=C=CC(N)(Cc1ccccc1)C(=O)O (centres unmarked) [2-amino-2-benzylhexa-3,4-dienoic acid]	irreversible inactivators	irreversible inactivators	irreversible inactivators	
C=C=CC(N)(Cc1ccccc1)C(=O)O (centres unmarked) [2-amino-2-benzylpenta-3,4-dienoic acid]	irreversible inactivators	irreversible inactivators	irreversible inactivators	
C#C[C@H](N)CCC(=O)O [(R) 4-amino-hex-5-ynoic acid]				inhibition of glutamate decarboxylase [6]: inhibit; inhibition of glutamate decarboxylase [7]: inhibit
CC(N)(/C=C/C(=O)O)C(=O)O (stereo not drawn) [α-methyl-trans-dehydroglutamic acid]				inhibition of glutamate decarboxylase [8]: irreversibly inhibits
C=CC(N)Cc1ccc(O)c(O)c1 (stereo not drawn) [α-vinyl-dopamine]				inactivation of aromatic amino acid decarboxylase [9]: slow-time dependent inactivation
NCC=CC(N)C(=O)O (stereo not drawn) [β, γ-dehydroornithine]				inhibition of ornithine decarboxylase (ornithine decarboxylase): very potent competitive inhibitor
